# According to patent US7759101B2, “Ginsenoside glycosidases hydrolyzing ginsenoside sugar moieties and uses thereof” (priority 2000, dated 2010):
# Key:
# [1] = tested on: Cellulose β-glucosidase of Clostridium and Bacillus (EC 3.2.1.21); assay: Comparison: hydrolysis of ginsenosides with cellulose β-glucosidase of Clostridium and Bacillus; type: biochemical, Clostridium thermocopiriae and Bacillus sp. AX; settings: substrate 0.5%, pH 5.0, 30° C., 18 hours
# Source text: To observe the differences between the ginsenoside glycosidases of the invention and known exo-cellulases, the ginsenoside glycosidases of the invention were compared with cellulose β-glucosidase (E.C. 3.2.1.21) in two reactions with 0.5% ginsenosides Rb1 or Rd as substrate.
# Cellulose β-glucosidases (EC 3.2.1.21) from Clostridium thermocopiriae and Bacillus sp. AX cannot hydrolyze any glycosides of ginsenosides. The cellulose β-glucosidase from almond slightly hydrolyzes the C-20 glycoside of Rb1, Rb2 and Rc to give ginsenoside Rd, but it cannot hydrolyze the glucoside at C-3. Ginsenoside glycosidase II is similar to cellulose β-glucosidase from almond, but it only slightly hydrolyzes Rd. The properties of ginsenoside glycosidase III are totally different from those of cellulose β-glucosidases.
# [2] = tested on: ginsenoside glycosidases from A. oryzae; assay: Hydrolysis of ginsenosides with crude ginsenoside glycosidases from A. oryzae, TLC; type: biochemical, Aspergillus oryzae; settings: pH 5.0, 30° C., 18 hours
# Protocol: (§1) Aspergillus oryzae FFCCDL-39 g (available from Food Fermentation Culture Collection of Dalian Institute of Light Industry) was cultured with stirring in a medium containing 1% ginseng extracts and 3% wheat bran extracts at 30° C. for 64 hours. Cells were removed by centrifugation, after which (NH4)2SO4 powder was added to 2000 ml of the cell-free supernatant with stirring to 65% saturation. The solution was stored overnight at 4° C. and precipitated proteins were collected by centrifugation, resuspended in 80 ml of distilled water and dialyzed against 0.01M acetate buffer pH 5. Insolubles were removed by centrifugation, and the solution was adjusted to 200 ml with 0.01 M acetate buffer pH 5. The crude enzyme solution may be used to hydrolyze ginsenosides or to purify the enzymes.
# Each 100 mg of ginsenosides Rb1, Rb2, Rc Re and Rd and each 10 mg of ginsenoside Rg3 and Rg2 were dissolved in separate tubes containing 10 ml of 0.01M acetate buffer pH 5. 10 ml of the crude enzyme solution obtained as above was added to each tube and allowed to react at 30° C. for 18 hours. Then 10 ml of n-butanol was added to stop the reactions. The products were measured by thin layer chromatography (TLC) (Silica gel 60-F254, Merck; chloroform:methanol:water 70:30:5). […]
# [3] = tested on: ginsenoside glycosidases from A. niger; assay: Hydrolysis of ginsenosides with crude ginsenoside glycosidases from A. niger, products measured by TLC; type: biochemical, Aspergillus niger; settings: pH 5, 30° C., 18 hours
# Protocol: as §1, with “niger FFCCDL-48” for “oryzae FFCCDL-39”, “g” for “g (available from Food Fermentation Culture Collection of Dalian Institute of Light Industry)”, “cultured” for “cultured with stirring”, “54” for “64”
# 100 mg each of ginsenosides Rb1, Rb2, Rc and Rd and 10 mg of ginsenoside Rg3 were dissolved in separate tubes containing 10 ml of 0.01M acetate buffer pH 5. 10 ml of the crude enzyme solution obtained in 1.1 was added to each tube and allowed to react at 30° C. for 18 hours. Then 10 ml of n-butanol was added to stop the reactions. The products were measured by thin layer chromatography (TLC) (Silica gel 60-F254, Merck; chloroform:methanol:water 70:30:5).
# Experiments were carried out to explore the effects of temperature, pH, metal ions and reaction time on the enzyme reaction, in order to further characterize the enzymes.
# 100 mg of ginsenoside Rb1 was used in a reaction under the conditions as described in 1.2 and the effect of temperature was shown in Table 2.
structure (smiles),measurement,setting,value
"CC(C)=CCC[C@](C)(O[C@@H]1O[C@H](CO)[C@@H](O)[C@H](O)[C@H]1O)[C@H]1CC[C@]2(C)[C@@H]1[C@H](O)C[C@@H]1[C@@]3(C)CC[C@H](O[C@@H]4O[C@H](CO)[C@@H](O)[C@H](O)[C@H]4O[C@@H]4O[C@H](CO)[C@@H](O)[C@H](O)[C@H]4O)C(C)(C)[C@@H]3CC[C@]12C [Rd, ginsenoside Rd]",Percentage of Rb1 in the reaction product,[1],100%
same,Percentage of C—K in the reaction product,[2],29%
same,Percentage of F2 in the reaction product,[2],40%
same,Percentage of Rd in the reaction product,[2],25%
same,Percentage of Rg3 in the reaction product,[2],1%
same,Percentage of aglycone in the reaction product,[2],5%
same,Percentage of C—K in the reaction product,[3],25%
same,Percentage of F2 in the reaction product,[3],50%
same,Percentage of Rd in the reaction product,[3],15%
same,Percentage of Rh2 in the reaction product,[3],5%
same,Percentage of aglycone in the reaction product,[3],5%
